Assay results as given in patent publication US6673746B1, “Virulence enhancement of bioherbicides” (priority 1999, dated 2004).

Key:
Fusarium oxysporum = assay type: cell-based; details: 0.5 ml of 1000 :g/ml analog in well, minimal medium, 28° C.
Protocol: Mutant selection. The inhibitory effect of valine and valine analogs was tested against the selected Fusarium spp., using a well zone-diffusion assay on a minimal medium. Seven available valine analogs were tested. The gradient plates were prepared as follows: Minimal media was poured into Petri dishes, then a disk (diameter=10 mm) of the solidified medium was cut out (with number 5 cutter) from the center of the plate and filled with the sterile solution of an analog (0.5 ml of a 1000 :g/ml of analog in sterile distilled H2O). The solution was gradually applied to the well and the plates were allowed to dry and form a gradient under the hood for 24 hours. A Fusarium oxysporum microconidia suspension of 10^7 sp/ml was obtained by washing a 10-14 day fungal culture grown on minimal medium (with nitrate) with 10 ml of sterile H2O. Five hundred :1 of the spore suspension was thoroughly spread across the plate with a glass rod. These plates were then incubated at 28° C.

Cannabis sativa = assay type: in vivo
Protocol: (§1) Amino Acid Toxicity Tests on Plants. Germinated seeds of Cannabis sativa, Papaver somniferum, and Nicotiana tobaccum were transferred to minimal medium (3% Sucrose (w/v), 1.7 g/l Yeast extract base without amino acids (Difco Laboratories, Detroit, Mich.), 16 g/l Ultrapure Agar (USB, Cleveland, Ohio)) supplemented with increasing concentrations of amino acids. Each amino acid was supplemented at eight concentrations (0 mM, 0.01 mM, 0.1 mM, 0.5 mM, 1 mM, 2 mM, 3 mM, 4 mM), and each treatment was replicated six times. Five pregerminated seeds were placed on each plate, per replication. Plates were incubated at ambient temperature with 12-hour diurnal period for two weeks. The fresh weight per seedling was calculated at the end of the experiment.

Papaver somniferum = assay: Amino acid toxicity test on plants, Papaver somniferum seedlings; assay type: in vivo; details: for reduction of fresh weight of P. somniferum seedlings: 1 mM; for inhibition of P. somniferum seedling growth compared with the other amino acids: in vivo; for reduction of fresh weight of P. somniferum seedlings vs control: 0.1 mM
Protocol: as §1

Nicotiana tobaccum = assay: Amino acid toxicity test on plants, tobacco seedlings; assay type: in vivo; details: 0.1 mM on agar media
Protocol: as §1

SMILES: CCC(C)C(=O)C(=O)O (racemic) [DL-α-keto-β-methyl valeric acid]
- inhibitory effect on strains of F. oxysporum (Fusarium oxysporum): not inhibitory

SMILES: CC[C@H](N)C(=O)O [L-amino-n- butyric acid]
- inhibitory effect on strains of F. oxysporum (Fusarium oxysporum): not inhibitory

SMILES: CC(C)[C@H](N)C(N)=O [L-valine amide]
- inhibitory effect on strains of F. oxysporum (Fusarium oxysporum): not inhibitory

SMILES: CC(C)[C@H](N)C(=O)NO [L-valine hydroxamate]
- inhibitory effect on strains of F. oxysporum (Fusarium oxysporum): not inhibitory

SMILES: CC(C)[C@H](N)CO [L-valinol]
- inhibitory effect on strains of F. oxysporum (Fusarium oxysporum): not inhibitory

SMILES: CCC[C@H](N)C(=O)O [Norvaline]
- inhibitory effect on strains of F. oxysporum (Fusarium oxysporum): inhibitory

SMILES: CC(C)(S)[C@@H](N)C(=O)O [penicillamine]
- inhibitory effect on strains of F. oxysporum (Fusarium oxysporum): inhibitory

SMILES: N[C@@H](Cc1ccccc1)C(=O)O [phenylalanine]
- reduction of fresh weight of C. sativa seedlings vs control (Cannabis sativa; 0.1 mM in minimal medium): 40-45%
- reduction of fresh weight of P. somniferum seedlings (Papaver somniferum): 20%
- inhibition of P. somniferum seedling growth compared with the other amino acids (Papaver somniferum): less inhibitory
- reduction of fresh weight of tobacco seedlings vs control (Nicotiana tobaccum): 20%

SMILES: N[C@@H](Cc1c[nH]c2ccccc12)C(=O)O [tryptophan]
- reduction of fresh weight of P. somniferum seedlings (Papaver somniferum): 20%
- inhibition of P. somniferum seedling growth compared with the other amino acids (Papaver somniferum): less inhibitory
- reduction of fresh weight of tobacco seedlings vs control (Nicotiana tobaccum): 20%

SMILES: N[C@@H](Cc1ccc(O)cc1)C(=O)O [tyrosine]
- reduction of fresh weight of C. sativa seedlings (Cannabis sativa; 1 mM in minimal medium): 25-30%
- inhibition of C. sativa seedlings compared with the other amino acids (Cannabis sativa; in vivo): less inhibitory than other amino acids tested
- reduction of fresh weight of P. somniferum seedlings vs control (Papaver somniferum): about 40%
- reduction of fresh weight of tobacco seedlings vs control (Nicotiana tobaccum): 50-60%

SMILES: CC(C)[C@H](N)C(=O)O [valine]
- reduction of fresh weight of C. sativa seedlings vs control (Cannabis sativa; 0.1 mM in minimal medium): 50%
- fresh weight of C. sativa seedlings relative to control seedlings (Cannabis sativa; 0.1 mM in minimal medium, two weeks): half of the control
- concentration at which inhibitory effects on growth of C. sativa seedlings start (Cannabis sativa; minimal media with nitrate): 0.1 mM
- reduction of fresh weight of P. somniferum seedlings vs control (Papaver somniferum): about 60%
